Assay results reported in patent US20240058417A1, “AMELIORATION AND TREATMENT OF INFARCTION DAMAGE” (priority 2021, published 2024).

Assays:
[1] = test system: DOX-induced cardiotoxicity; experiment: DOX treatment in vivo (cardiotoxicity, 42 days)
human cardiomyocytes = experiment: DOX-induced cell death and mitochondrial damage in human cardiomyocytes (HCM); details: 10 μM DOX
myocardial I/R injury = experiment: in vivo murine myocardial I/R: infarct size, troponin, apoptosis, cardiac function; parameters: species or system mouse; details: wild-type mice
BNIP3/BAX = experiment: in vivo murine myocardial I/R: necrotic and apoptotic signaling in the area at risk; parameters: species or system mouse; details: AAR
recombinant BNIP3 = recombinant BNIP3 (Mus musculus, UniProt O55003); experiment: BNIP3/peptide microarray (truncation and substitution analysis); type: binding; details: FIG. 3H
[2] = target: T1, Recombinant Mouse BCL2/adenovirus E1B 19 kDa protein interacting protein 3 (Bnip3) (mouse, UniProt O55003 1-187, labelled with DyLight 650 (Dy650) where used as the soluble probe); experiment: N-terminal sequence truncation analysis, peptide microarray with rBNIP3
T1 construct: Bought recombinant protein; also called rBNIP3; recombinant BNIP3

[3] = target: T1, Recombinant Mouse BCL2/adenovirus E1B …; experiment: BNIP3/peptide microarray, labelled rBNIP3 on immobilised truncation peptides

T1 sequence (O55003 whole entry, the tested form may be a part): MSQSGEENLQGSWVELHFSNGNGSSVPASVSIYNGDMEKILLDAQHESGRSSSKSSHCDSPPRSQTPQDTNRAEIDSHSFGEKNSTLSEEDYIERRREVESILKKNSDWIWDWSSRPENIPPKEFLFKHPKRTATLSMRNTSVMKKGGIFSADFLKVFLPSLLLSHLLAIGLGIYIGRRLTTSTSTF
recombinant BNIP3, sequence (O55003 whole entry, the tested form may be a part): as above

## COc1cccc2c1C(=O)c1c(O)c3c(c(O)c1C2=O)C[C@@](O)(C(=O)CO)C[C@@H]3O[C@H]1C[C@H](N)[C@H](O)[C@H](C)O1 [DOX, Doxorubicin]
[1]; DOX alone or in combination with PepB
  heart rate: unaffected
[1]; additional chloroquine treatment
  CQ mediated LC3II/I increase (autophagic flux): abolished
[1]; cardiac mitochondria, Seahorse
  basal respiration: affected
  maximal respiration: affected
  respiratory reserve capacity (OCR): inhibited
[1]; mouse, in vivo
  BNIP3 accumulation: triggered
  cardiomyocyte death (cardiac troponin I levels): dramatic positive effect
  p62 accumulation: triggered
Human cardiomyocytes
  mPTP opening: activated
Human cardiomyocytes; four and 22 hours
  mitochondrial ROS generation: triggered
  mitochondrial membrane potential: disrupted
Human cardiomyocytes; four hours
  mitochondrial calcium ion overload: induced

## GRKKRRQRRRPQLDAQHESGRSSSKSSHCDSP [TAT-BNIP3-20C, control peptide, HIV-1 PTD attached to BNIP3 amino acids 42-61]
Myocardial I/R injury; 5 minutes before reperfusion, 24 h reperfusion
  infarct size compared with vehicle treatment: no difference was observed

## GRKKRRQRRRPQMSQSGEENLQGSWVELHFSN [TAT-BNIP3-20A, HIV-1 PTD attached to 20 amino acids derived from BNIP3 1-20]
BNIP3/BAX
  caspase-3 activity: markedly reduced
BNIP3/BAX; wild-type mice, 10 minutes reperfusion
  BNIP3 translocation to the mitochondria: prevented
Myocardial I/R injury; peptide 5 minutes before reperfusion, 30 min ischemia/24 h reperfusion
  reduction in infarct size relative to vehicle: 41%

## VELHFSN
Recombinant BNIP3
  luminescence in N-terminal truncation analysis: substantially higher luminescence

B1: VELHFSN (peptide)
peptide: VELHFSN
notes: N-terminal truncation of BNIP3 1-20 on the peptide microarray
[2]
  binding result: binds

B2: WVELHFSN (BNIP3 amino acid residues 13-20) (peptide)
peptide: WVELHFSN
notes: Immobilised on peptide microarrays (JPT); also called truncated peptide
[3]
  fold signal increase compared to the 20 residues of BNIP3-20A peptide: 14 fold
